Reference: patent US20260207718A1, “METHODS FOR TREATING LATE ONSET POMPE DISEASE IN PEDIATRIC PATIENTS” (Amicus Therapeutics, Inc., priority 2022, published 2026)

What was measured:
Gaa KO mice [1] = assay: Co-administration of ATB200 and miglustat in Gaa KO mice (tissue glycogen, LAMP1, LC3, dysferlin); type: in vivo; details: FIG. 15B
Protocol: The therapeutic effects of ATB200 and miglustat were evaluated and compared against those of Alglucosidase alfa in Gaa KO mice. For the study, male Gaa KO (3- to 4-month old) and age-matched wild-type (WT) mice were used. Alglucosidase alfa was administered via bolus tail vein intravenous (IV) injection. In the co-administration regimen, miglustat was administered via oral gavage (PO) 30 minutes prior to the IV injection of ATB200. Treatment was given biweekly. Treated mice were sacrificed after 14 days from the last administration and various tissues were collected for further analysis. Table 11 summarizes the study design:
Tissue glycogen content in tissues samples was determined using amyloglucosidase digestion, as discussed above.
Tissue samples were also analyzed for biomarker changes following the methods discussed in: Khanna R, et al. (2012), “The pharmacological chaperone AT2220 increases recombinant human acid α-glucosidase uptake and glycogen reduction in a mouse model of Pompe disease,” Plos One 7(7): e40776; and Khanna, R et al. (2014), “The Pharmacological Chaperone AT2220 Increases the Specific Activity and Lysosomal Delivery of Mutant Acid α-Glucosidase, and Promotes Glycogen Reduction in a Transgenic Mouse Model of Pompe Disease,” PLOS ONE 9(7): e102092.

Gaa KO mice [2] = assay: Single fiber analysis (LAMP1/LC3) of muscle fibers from Gaa KO mice; type: in vivo
Excerpt: FIG. 17 depicts co-immunofluorescent staining of LAMP1 (green) (see for example, “B”) and LC3 (red) (see, for example, “A”) in single fibers isolated from the white gastrocnemius of Gaa KO mice treated with a vehicle, alglucosidase alfa, or ATB200. “C” depicts clearance of autophagic debris and absence of enlarged lysosome. A minimum of 30 fibers were examined from each animal.
As a result, a significant portion of muscle fibers analyzed (36-60%) from ATB200-treated mice appeared normal or near-normal.

[3] = system: LOPD population (ERT-naïve and ERT-experienced); assay: Indirect treatment comparison, multi-level network meta regression (ML-NMR); set-up: species or system human; details: base-case scenario, sensitivity analysis (RCT data only)
Protocol: Moreover, a comparison of three randomized clinical trials (LOTS: alglucosidase alfa vs placebo; COMET: avalglucosidase alfa vs alglucosidase alfa; and PROPEL: cipaglucosidase alfa/miglustat vs alglucosidase alfa) share 6 MWD and % predicted FVC as key primary or secondary endpoints. Using patient-level data from the PROPEL randomized clinical trial (RCT) plus aggregate published data from other RCTs, Phase I/II and open label extension trials, a multi-level network meta-regression was conducted, adjusting for various baseline covariates including previous ERT duration. The base case scenario had covariates resembling the PROPEL population (naïve and ERT-experienced) and analyzed 6 MWD and FVC change from baseline at 52 weeks. […]
A systematic literature review (SLR) was conducted to identify relevant published clinical studies of ERTs in LOPD. Outcomes assessed were change from baseline in 6-minute walking distance (6 MWD) (m) and in forced vital capacity (FVC; % predicted) at week 52, acknowledged by clinicians, HTA agencies and payers as key LOPD trial endpoints. […]
A base-case scenario was evaluated in which all covariates were set to the target population of the PROPEL trial. […]

[4] = system: adult subjects with late-onset Pompe disease (LOPD); details: in vivo
Excerpt: (§1) Efficacy assessments (i.e., functional assessments) included evaluation of ambulatory function (6 MWT), motor function tests (Gait, Stair, Gower, and Chair maneuver (GSGC) test and Timed Up and Go (TUG) test), muscle strength (manual muscle testing and quantitative muscle testing), and pulmonary function tests (FVC, SVC, MIP, MEP, and SNIP).
(§2) The primary efficacy endpoint was the change from baseline to Week 52 in 6 MWD.
(§3) Key secondary efficacy endpoints in a pre-specified hierarchical order of importance were as follows. These secondary endpoints were analyzed using analysis of covariance (ANCOVA) model with last observation carried forward (ITT LOCF). • change from baseline to Week 52 in sitting FVC (% predicted) • change from baseline to Week 52 in the manual muscle test score for the lower extremities • change from baseline to Week 52 in the total score for the PROMIS—physical function • change from baseline to Week 52 in the total score for the PROMIS—fatigue • change from baseline to Week 52 in GSGC total score
(§4) PROPEL was a 52-week, double-blind randomized global study designed to assess the efficacy, safety and tolerability of AT-GAA compared to the current standard of care, alglucosidase alfa, an enzyme replacement therapy (ERT).
(§5) Patients enrolled in PROPEL were randomized 2:1 so that for every two patients randomized to be treated with AT-GAA, one was randomized to be treated with alglucosidase alfa.

[5] = system: subjects with late-onset Pompe disease (LOPD); details: cited from earlier work
[6] = system: adult subjects with late-onset Pompe disease (LOPD); assay: ATB200-03 (PROPEL) phase 3 trial; details: for absolute decline in percent-predicted FVC: 52 weeks; for mean change in total GSGC score: baseline to week 52, overall population
Excerpt: as §1, §2, §3, §4, §5

CIMPR = CIMPR (Homo sapiens, UniProt P11717); assay: CIMPR affinity chromatography (bound vs unbound rhGAA by GAA activity); type: binding
Excerpt: Multiple batches of the rhGAA according to the disclosure were produced in shake flasks and in perfusion bioreactors using CHO cell line GA-ATB200, the product of which is referred to as “ATB200.” Weak anion exchange (“WAX”) liquid chromatography was used to fractionate ATB200 rhGAA according to terminal phosphate and sialic acid. Elution profiles were generated by eluting the ERT with increasing amount of salt. The profiles were monitored by UV (A280 nm).
To evaluate the ability of the conventional rhGAAs in MYOZYME® and LUMIZYME® to interact with the CIMPR, the two conventional rhGAA preparations were injected onto a CIMPR affinity column (which binds rhGAA having M6P groups) and the flow through collected. The bound material was eluted with a free M6 gradient. Fractions were collected in 96-well plate and GAA activity assayed by 4MU-α-glucosidase substrate. The relative amounts of unbound (flow through) and bound (M6P eluted) rhGAA were determined based on GAA activity and reported as the fraction of total enzyme. […] Indeed, only 27% of the rhGAA in MYOZYME® and 22% of the rhGAA in LUMIZYME® contained M6P that can be productive to target it to the CIMPR on muscle cells.

pediatric LOPD patient = details: (failed); 20 mg/kg Q2W (M)

Sequence of CIMPR (P11717 41-2491, species assumed): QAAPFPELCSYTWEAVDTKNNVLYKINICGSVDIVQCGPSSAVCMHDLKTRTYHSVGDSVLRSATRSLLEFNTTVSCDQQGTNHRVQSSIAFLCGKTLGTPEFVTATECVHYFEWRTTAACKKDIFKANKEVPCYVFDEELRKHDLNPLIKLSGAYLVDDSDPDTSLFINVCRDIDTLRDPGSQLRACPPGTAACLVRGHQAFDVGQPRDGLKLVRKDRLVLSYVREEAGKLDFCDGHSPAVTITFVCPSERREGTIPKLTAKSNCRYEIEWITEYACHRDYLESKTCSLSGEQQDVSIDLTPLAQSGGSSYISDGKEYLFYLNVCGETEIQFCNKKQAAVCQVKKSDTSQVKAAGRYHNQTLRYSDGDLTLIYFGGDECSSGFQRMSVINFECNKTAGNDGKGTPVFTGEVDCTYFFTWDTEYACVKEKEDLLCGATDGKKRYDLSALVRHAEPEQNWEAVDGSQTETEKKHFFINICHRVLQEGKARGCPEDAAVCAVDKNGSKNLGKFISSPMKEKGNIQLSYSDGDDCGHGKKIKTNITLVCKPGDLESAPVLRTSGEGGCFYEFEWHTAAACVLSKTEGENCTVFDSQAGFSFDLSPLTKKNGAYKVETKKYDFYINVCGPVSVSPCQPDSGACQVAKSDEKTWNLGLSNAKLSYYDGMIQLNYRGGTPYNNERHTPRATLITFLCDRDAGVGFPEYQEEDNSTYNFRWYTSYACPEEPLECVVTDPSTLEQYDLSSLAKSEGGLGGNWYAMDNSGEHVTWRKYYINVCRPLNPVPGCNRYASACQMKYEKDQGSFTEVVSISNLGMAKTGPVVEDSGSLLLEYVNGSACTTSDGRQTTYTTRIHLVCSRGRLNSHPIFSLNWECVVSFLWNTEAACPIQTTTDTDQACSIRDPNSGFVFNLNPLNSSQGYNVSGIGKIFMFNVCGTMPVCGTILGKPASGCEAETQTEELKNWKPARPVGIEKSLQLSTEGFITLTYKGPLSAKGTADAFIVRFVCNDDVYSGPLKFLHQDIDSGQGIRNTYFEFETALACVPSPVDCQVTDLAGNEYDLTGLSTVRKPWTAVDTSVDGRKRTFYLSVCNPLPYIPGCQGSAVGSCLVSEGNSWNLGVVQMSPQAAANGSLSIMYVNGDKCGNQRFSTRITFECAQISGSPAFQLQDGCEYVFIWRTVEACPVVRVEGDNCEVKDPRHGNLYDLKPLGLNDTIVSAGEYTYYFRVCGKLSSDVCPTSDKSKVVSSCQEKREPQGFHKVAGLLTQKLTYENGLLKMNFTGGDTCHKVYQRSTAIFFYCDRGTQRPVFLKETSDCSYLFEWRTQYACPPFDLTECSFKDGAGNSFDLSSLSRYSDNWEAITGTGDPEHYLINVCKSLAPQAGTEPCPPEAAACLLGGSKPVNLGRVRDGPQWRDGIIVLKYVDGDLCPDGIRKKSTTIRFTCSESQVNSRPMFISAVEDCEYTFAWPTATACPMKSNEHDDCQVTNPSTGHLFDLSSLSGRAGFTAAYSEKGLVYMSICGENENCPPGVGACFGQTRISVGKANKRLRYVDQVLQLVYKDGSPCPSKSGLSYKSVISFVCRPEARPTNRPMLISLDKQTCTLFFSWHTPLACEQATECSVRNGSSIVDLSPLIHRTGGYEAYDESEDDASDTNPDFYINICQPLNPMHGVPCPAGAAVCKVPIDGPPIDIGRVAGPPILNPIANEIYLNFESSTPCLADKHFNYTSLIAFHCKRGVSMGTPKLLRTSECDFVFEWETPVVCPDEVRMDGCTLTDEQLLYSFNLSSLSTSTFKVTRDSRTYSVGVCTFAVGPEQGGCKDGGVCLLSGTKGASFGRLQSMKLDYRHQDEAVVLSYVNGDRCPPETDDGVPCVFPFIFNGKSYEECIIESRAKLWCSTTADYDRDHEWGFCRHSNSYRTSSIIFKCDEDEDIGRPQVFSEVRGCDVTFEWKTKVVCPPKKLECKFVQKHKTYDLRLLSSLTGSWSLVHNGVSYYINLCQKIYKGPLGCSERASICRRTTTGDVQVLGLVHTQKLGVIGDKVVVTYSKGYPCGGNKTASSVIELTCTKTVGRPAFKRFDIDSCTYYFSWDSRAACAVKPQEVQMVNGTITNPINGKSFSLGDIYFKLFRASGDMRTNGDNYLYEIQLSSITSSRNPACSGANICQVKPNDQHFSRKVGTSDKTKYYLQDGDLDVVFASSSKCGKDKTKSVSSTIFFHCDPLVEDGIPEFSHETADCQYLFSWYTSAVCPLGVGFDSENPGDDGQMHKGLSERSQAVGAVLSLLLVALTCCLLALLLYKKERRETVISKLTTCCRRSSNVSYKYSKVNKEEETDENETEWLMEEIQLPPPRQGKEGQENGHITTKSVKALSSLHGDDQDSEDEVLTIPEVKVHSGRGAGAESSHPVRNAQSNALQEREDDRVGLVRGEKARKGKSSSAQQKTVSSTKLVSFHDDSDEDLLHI

alglucosidase alfa
LC3 II level (western blot) / effect on autophagy (Gaa KO mice [1]): modest | Fibers with Autophagy Buildup (Gaa KO mice [2]): >90% | Fibers with Normal or Near-normal Appearance (Gaa KO mice [2]): <10% | relative effect for 6MWT and FVC [3]: numerically favourable versus placebo | participants with infusion/injection associated reactions (IARs) [4]: 26% | patients who discontinued treatment due to an adverse event [4]: 2.6% | subjects who did not show an initial improvement during treatment ([5]; 368 subjects with LOPD from published studies): > 30% | duration of improvements in initial responders ([5]; longer-term studies): approximately 2 years | absolute decline in percent-predicted FVC ([6]; ERT switch patients): 4.0% | FVC, CFBL at Week 52 ([6]; ERT switch population): −4.0 % predicted | 6MWD, CFBL at Week 52 ([6]; ERT switch population (n=95)): 0.0 m | 6MWD, CFBL at Week 52 ([6]; ERT treatment naive population): 38 m | FVC, CFBL at Week 52 ([6]; ERT treatment naive population): −3.6 % predicted | 6MWD, CFBL at Week 52 ([6]; ERT treatment naive population, listed as Alglucosidase alfa): +38.3 m | mean urinary Glc4 concentration ([6]; ERT-experienced patients, Week 52 (baseline 4.6 ATB200/miglustat, 7.2 alglucosidase alfa with placebo)): 9.1 mmol/mol | mean change in CK (creatine kinase) ([6]; after 52 weeks): +15.6% | mean change (SD) in MMT score for lower extremities ([6]; baseline to week 52): 0.9 (2.58) | mean change in total GSGC score [6]: worsening | mean change in total GSGC score ([6]; listed as alglucosidase alfa and placebo): 0.77 (1.8) | absolute decline in percent-predicted FVC ([6]; combined population): 4.0% | mean change of urine Hex-4 ([6]; combined population, after 52 weeks): +11.0% | 6MWD, CFBL at Week 52 ([6]; overall ERT switch and ERT naïve population): 7 m | 6MWD, CFBL at Week 52 ([6]; overall ERT switch and ERT naïve population, listed as Alglucosidase alfa): +7.2 m | FVC, CFBL at Week 52 ([6]; overall population): −4.0 % predicted

MYOZYME®: conventional rhGAA product containing alglucosidase alfa (Sanofi Genzyme)
rhGAA that bound to the CIMPR (CIMPR): 27% | rhGAA that did not bind to the CIMPR (fraction of total enzyme) (CIMPR): 73% | lysosome size and autophagic buildup compared to vehicle-treated mice (Gaa KO mice [2]; FIG. 17): did not show any significant difference | 6MWT (pediatric LOPD patient): 44.2 m
